# Assay results reported in patent publication US20160287589A1, “SUBSTITUTED-IMIDAZOPYRIDAZINES” (BAYER PHARMA AKTIENGESELLSCHAFT, priority 2013, published 2016).
# Key:
# MKNK1 [1] = molecular target: T1, MKNK1 (Homo sapiens, UniProt Q9BUB5, T385D); experiment: MKNK1 kinase high ATP assay (TR-FRET-based); type: biochemical; conditions: 2 mM ATP, 15 min preincubation
# T1 construct: GST (N); purchased Carna Biosciences 02-145; host or cells: insect cells (baculovirus expression system)
# Outline: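 TR-FRET read-out (anti-phospho-S6 Ser236 antibody, Eu/XL665) of biotin-peptide phosphorylation (0.06 μM) at high ATP (2 mM final). Enzyme was GST-MKNK1 full length, T344D, pre-bound to compound for 15 min before a 30 min reaction at 22 °C, pH 7.5. Inhibition scaled between no-inhibitor (0%) and no-enzyme (100%) wells.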
# MKNK1 [2] = molecular target: T1, MKNK1; experiment: MKNK1 kinase assay (MKNK1 TR-FRET assay); type: biochemical; conditions: 10 μM ATP, 15 min preincubation
# T1 sequence (Q9BUB5 1-424 isoform Q9BUB5-2 T344D): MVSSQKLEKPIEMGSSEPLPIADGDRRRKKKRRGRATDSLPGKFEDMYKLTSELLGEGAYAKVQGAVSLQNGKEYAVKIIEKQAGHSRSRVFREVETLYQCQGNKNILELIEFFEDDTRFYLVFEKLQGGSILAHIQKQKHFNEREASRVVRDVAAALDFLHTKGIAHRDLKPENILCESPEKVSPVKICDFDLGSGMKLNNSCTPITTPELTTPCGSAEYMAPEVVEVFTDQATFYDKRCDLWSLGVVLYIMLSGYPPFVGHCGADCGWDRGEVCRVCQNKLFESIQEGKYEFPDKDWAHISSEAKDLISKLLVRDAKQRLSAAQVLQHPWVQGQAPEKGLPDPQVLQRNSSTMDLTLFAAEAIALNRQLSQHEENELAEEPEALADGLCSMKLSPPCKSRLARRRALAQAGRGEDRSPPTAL
SMILES,IC50 (MKNK1 [1]; Table 2b) [nM],IC50 (MKNK1 [2]; Table 1b) [nM],IC50 (MKNK1 [1]; Table 2c) [nM],IC50 (MKNK1 [2]; Table 1c) [nM],also measured
"COC[C@H]1CCCN1c1cccc2oc(-c3cnc4ccc(OC[C@@H]5CNCC(=O)N5)nn34)cc12 [II-47, (6S)-6-{[(3-{4-[(2R)-2-(methoxymethyl)pyrrolidin-1-yl]-1-benzofuran-2-yl}imidazo[1,2-b]pyridazin-6-yl)oxy]methyl}piperazin-2-one]",0.8,4.8,–,–,–
"Cc1ccccc1C(=O)NCCOc1ccc2ncc(-c3cc4ccccc4o3)n2n1 [Example I-71, N-(2-{[3-(1-Benzofuran-2-yl)imidazo[1,2-b]-pyridazin-6-yl]oxy}ethyl)-2-methylbenzamide]",–,–,–,–,IC50 (MKNK1 [1]; Table 2a): 14.4 nM; IC50 (MKNK1 [2]; Table 1a): 4.6 nM
"N[C@H]1C[C@H](Oc2ccc3ncc(-c4cc5c(N6CCC[C@@H]6CO)nccc5o4)n3n2)C1 [III-102, [(2R)-1-(2-{6-[(trans-3-Aminocyclobutyl)oxy]imidazo[1,2-b]pyridazin-3-yl}furo[3,2-c]pyridin-4-yl)pyrrolidin-2-yl]methanol]",–,–,31.2,6.8,–
"COc1ccc2ncc(-c3cc4c(N5CCN[C@H](C)C5)cccc4o3)n2n1 [II-39, 6-methoxy-3-{4-[(3R)-3-methylpiperazin-1-yl]-1-benzofuran-2-yl}imidazo[1,2-b]pyridazine]",1.1,1.6,–,–,–
"O=C1CC[C@H](COc2ccc3ncc(-c4cc5c(N6CCNCC6)cccc5o4)n3n2)N1 [II-19, (5R)-5-[({3-[4-(Piperazin-1-yl)-1-benzofuran-2-yl]imidazo[1,2-b]pyridazin-6-yl}-oxy)methyl]pyrrolidin-2-one]",0.4,0.4,–,–,–
"C[C@@H](N)COc1ccc2ncc(-c3cc4c(N5CCO[C@@H](C)C5)cccc4o3)n2n1 [II-76, (2R)-1-[(3-{4-[(2S)-2-methylmorpholin-4-yl]-1-benzofuran-2-yl}imidazo[1,2-b]pyridazin-6-yl)oxy]propan-2-amine]",18.4,6.9,–,–,–
"C[C@@H]1COCCN1c1cccc2oc(-c3cnc4ccc(O[C@H]5C[C@H](N)C5)nn34)cc12 [II-50, trans-3-[(3-{4-[(3R)-3-methylmorpholin-4-yl]-1-benzofuran-2-yl}imidazo[1,2-b]pyridazin-6-yl)oxy]cyclobutanamine]",50.6,39.1,–,–,–
"CN(C)[C@H]1CCN(c2nccc3oc(-c4cnc5ccc(OC[C@H]6CCC(=O)N6)nn45)cc23)C1 [III-75, (5R)-5-{[(3-{4-[(3S)-3-(Dimethylamino)pyrrolidin-1-yl]furo[3,2-c]pyridin-2-yl}imidazo[1,2-b]pyridazin-6-yl)oxy]methyl}pyrrolidin-2-one]",–,–,1.7,0.8,–
"CC(C)Oc1nccc2oc(-c3cnc4ccc(OC[C@H]5CCC(=O)N5)nn34)cc12 [IV-4, (5R)-5-[({3-[4-(Propan-2-yloxy)furo[3,2-c]pyridin-2-yl]imidazo[1,2-b]pyridazin-6-yl}oxy)methyl]pyrrolidin-2-one]",–,–,–,–,IC50 (MKNK1 [1]; Table 2d): 4 nM; IC50 (MKNK1 [2]; Table 1d): 2 nM
"CN(C)C(=O)COc1ccc2ncc(-c3cc4ccccc4o3)n2n1 [Example I-36, 2-{[3-(1-Benzofuran-2-yl)imidazo[1,2-b]pyridazin-6-yl]oxy}-N,N-dimethyl-acetamide]",–,–,–,–,IC50 (MKNK1 [1]; Table 2a): 56.2 nM; IC50 (MKNK1 [2]; Table 1a): 15.1 nM
"COc1ccc2ncc(-c3cc4c(N5CCOC(C)(C)C5)nccc4o3)n2n1 [III-146, 3-[4-(2,2-dimethylmorpholin-4-yl)furo[3,2-c]pyridin-2-yl]-6-methoxy-imidazo[1,2-b]pyridazine]",–,–,8.7,27,–
"C[C@@H]1CN(c2nccc3oc(-c4cnc5ccc(OC[C@H]6CCC(=O)N6)nn45)cc23)C[C@H](C)O1 [III-72, (5R)-5-{[(3-{4-[(2R,6S)-2,6-Dimethylmorpholin-4-yl]furo[3,2-c]pyridin-2-yl}imidazo[1,2-b]pyridazin-6-yl)oxy]methyl}pyrrolidin-2-one]",–,–,2,1,–
"COc1cccc2oc(-c3cnc4ccc(OC[C@@H]5CCC(=O)N5)nn34)cc12 [Example I-19, (5S)-5-({[3-(4-Methoxy-1-benzofuran-2-yl)imidazo[1,2-b]pyridazin-6-yl]oxy}-methyl)pyrrolidin-2-one]",–,–,–,–,IC50 (MKNK1 [1]; Table 2a): 15.4 nM; IC50 (MKNK1 [2]; Table 1a): 4.5 nM
